What was measured:
[1] = Pharmacokinetic evaluation in mice (IV and PO); format: in vivo; details: mouse, plasma, female Balb/c mice; for bioavailability: peros (PO) 2 mg/kg vs IV 0.2 mg/kg, read-out: F (bioavailability)
Procedure: Experiment process: 0.1 mg/ml of the clear solution of each test compound in the corresponding solvents (as shown in Table 9) was injected into female Balb/c mice (fasting overnight. 7-9 weeks old) via the tail vein at a dose of […]. Blood samples ([…]) were collected from the jugular vein or the tail vein at the following time points: 0.0833 hour, 0.25 hour, 0.5 hour, 1.0 hour, 2.0 hours, 4.0 hours. 8.0 hours and 24 hours after intravenous administration. 0.2 mg/ml of the test compounds suspended in the corresponding solvents (as shown in Table 9) were given to the female Balb/c mice (fasting overnight. 7-9 weeks old) by gavage at a dose of 2 mg/kg. Blood samples (30 μL) were collected from the jugular vein or the tail vein of the female Balb/c mice at the following time points: 0.0833 hour, 0.25 hour, 0.5 hour, 1.0 hour, 2.0 hours, 4.0 hours, 6.0 hours, 8.0 hours and 24 hours after oral administration. The blood samples were placed in anticoagulant tubes containing EDTA-K2, and centrifuged to separate plasma. The plasma concentration was determined by LC-MS/MS, and a WinNonlin™ Version 6.3 pharmacokinetic software (Pharsight, Mountain View, CA) was used to calculate related pharmacokinetic parameters by a linear-log trapezoidal method in a non-compartmental model. [table]

[2] = system: Ba/F3-CCDC6-RET cell allograft tumor model; test: Tumor growth inhibition (TGI) in Ba/F3-CCDC6-RET cell allograft tumor model; format: in vivo, BALB/c nude female mouse
Procedure: Ba/F3-CCDC6-RET cell line was cultured in a 1640 medium (Biological Industries)+10% fetal bovine serum (BI)+1% Penicillin Streptomycin solution (Coring, USA) at 37° C. in a 5% CO2 incubator, with passage treatment twice a week Cells were collected when the cell saturation was 80%-90%, subjected to cell counting, and then inoculated subcutaneously into the right armpit of each BALB/c nude female mouse (6-8 weeks old). After inoculation, tumor growth was observed day by day. When the average tumor volume reached 165.77 mm^3, mice were randomly divided into groups according to the tumor volume, with 6 mice in each group, and then the mice were administrated with drug.
Health status and death situation of the mice were checked every day. In addition, the mice were examined regularly, including tumor growth, activity ability, diet, weight, eyes, hair and other abnormal behaviors, and tumor volume and weight were measured twice a week (on Tuesday and Friday).
Inhibitory effects of the compounds on tumor growth were evaluated according to the relationship between tumor volume and time. The tumor volume was measured by a vernier caliper, with the formula being TV=0.5a×b^2, wherein “a” was the long diameter of the tumor and “b” was the short diameter of the tumor. TGI was calculated by the difference between the median tumor volume of mice in the solvent group and the median tumor volume of mice in the drug group, and expressed as the percentage of median tumor volume in the solvent control group.
TGI was calculated by the following formula: TGI(TGI(%)=[1−(T23−T0)/(V23−V0)]×100)
Data were expressed by Means±Standard Error (Mean±SE), unless otherwise stated. The one way ANOVA test was used to compare whether the difference between the tumor volume in the treatment group and the tumor volume in the control group is statistically significant. P<0.05 was considered as statistically significant. The 5% DMSO+10% polyoxyl 15 hydroxystearate (Solutol)+85% 120 was used as the negative control.

[3] = target: RET kinase (Homo sapiens, UniProt P07949); test: In-vitro enzyme activity test, RET kinase; format: biochemical; details: ATP 20 μM; 10 concentrations 3 μM to 0.152 nM
RET kinase, sequence (P07949 29-1114): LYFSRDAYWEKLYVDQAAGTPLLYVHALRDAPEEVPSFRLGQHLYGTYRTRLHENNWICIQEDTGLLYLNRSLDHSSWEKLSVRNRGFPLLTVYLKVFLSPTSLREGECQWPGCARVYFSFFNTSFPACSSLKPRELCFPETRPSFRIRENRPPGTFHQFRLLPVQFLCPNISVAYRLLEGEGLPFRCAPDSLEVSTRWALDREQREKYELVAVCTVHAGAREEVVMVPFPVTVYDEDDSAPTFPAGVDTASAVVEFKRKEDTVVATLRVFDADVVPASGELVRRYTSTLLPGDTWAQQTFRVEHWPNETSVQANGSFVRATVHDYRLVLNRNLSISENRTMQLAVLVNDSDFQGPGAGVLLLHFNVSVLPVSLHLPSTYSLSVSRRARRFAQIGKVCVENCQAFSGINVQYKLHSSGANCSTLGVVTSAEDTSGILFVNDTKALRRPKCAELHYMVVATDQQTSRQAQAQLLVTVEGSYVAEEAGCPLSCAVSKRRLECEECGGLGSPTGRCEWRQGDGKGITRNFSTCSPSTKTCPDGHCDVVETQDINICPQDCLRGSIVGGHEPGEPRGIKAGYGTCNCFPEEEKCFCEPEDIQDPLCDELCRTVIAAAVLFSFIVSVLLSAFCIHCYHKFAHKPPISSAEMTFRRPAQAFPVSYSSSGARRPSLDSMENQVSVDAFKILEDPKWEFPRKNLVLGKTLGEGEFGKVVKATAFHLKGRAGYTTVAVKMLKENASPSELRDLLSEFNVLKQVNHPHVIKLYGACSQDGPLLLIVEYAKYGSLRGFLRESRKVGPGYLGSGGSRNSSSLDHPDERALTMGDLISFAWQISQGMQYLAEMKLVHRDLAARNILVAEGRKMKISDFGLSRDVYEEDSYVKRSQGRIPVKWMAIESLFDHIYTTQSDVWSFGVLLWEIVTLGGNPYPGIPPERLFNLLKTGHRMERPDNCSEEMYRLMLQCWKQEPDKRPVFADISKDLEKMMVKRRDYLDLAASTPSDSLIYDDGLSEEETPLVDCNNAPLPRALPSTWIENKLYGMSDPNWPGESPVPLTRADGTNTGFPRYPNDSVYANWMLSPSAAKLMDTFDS
Procedure: (§1) The enzyme activity was detected by a Z′-LYTE™ kinase test, and inhibitory effects of the compounds onRET and RET (V804M) kinases were evaluated with an ICs value of each compound as an index.
(§2) The compounds used for RET and RET (V804M) kinase tests were diluted 3-fold, in 10 concentration gradients ranging from 3 μM to 0.152 nM; and the content of DMSO in detection reaction was 1%.
(§3) Basic reaction buffer, 20 mM 4-(2-hydroxyethyl)piperazine-1-ethanesulfonic acid (Hepes) buffer (pH 7.5), 10 mM MgCl2. 1 mM 1,2-bis[2-[bis(carboxymethyl)amino]ethoxy]ethane (EGTA), 0.02% polyoxyethylene lauryl ether (Brij35), 0.02 mg/mL bovine serum albumin, 0.1 mM of Na3VO4, 2 mM dithiothreitol (DTT) and 1% DMSO.
(§4) The compounds to be tested were dissolved in a 100% DMSO system to be diluted to 10 mM for further use. The solution was diluted by using Integra Viaflo Assist.
(§5) Test conditions: concentrations of RET kinase, peptide substrate CHKtide and adenosine triphosphate (ATP) were […], 1000 μM and 20 μM, respectively, and concentrations of RET (V804M) kinase, substrate peptide and ATP were […], 1000 μM and 30 μM, respectively.
(§6) Reaction process: compound solutions of different concentrations were added to a kinase/peptide solution prepared according to the test conditions, the obtained solution was incubated at room temperature for 20 minutes, and then 33P-ATP of corresponding concentrations were added, and the obtained solution was incubated at room temperature for 120 minutes. The radioactivity was detected by a filter-binding method.
(§7) The reaction was terminated by adding phosphoric acid (concentration, 0.5%) into a kinase reaction solution, and plate reading was carried out with an Envision instrument.
(§8) Data were converted into phosphorylation rate and inhibition rate, and the parametric curve was fitted by using GraphPad Software to obtain IC50 data of the compounds.

[4] = target: RET (V804M) kinase (Homo sapiens, UniProt P07949, V804M); test: In-vitro enzyme activity test, RET (V804M) kinase; format: biochemical; details: ATP 30 μM; 10 concentrations 3 μM to 0.152 nM
RET (V804M) kinase, sequence (P07949 29-1114 V804M): as the sequence (P07949 29-1114) above, with V776M counted along it
Procedure: as §1, §2, §3, §4, §5, §6, §7, §8

[5] = 10 mg/kg (D0-D13)/5 mg/kg (D14-D17)/2,5 mg/kg (D18-D28) BID

Row | Structure (SMILES) | bioavailability [1] | TGI% (tumor volume at Day 23 after drug administration) [2, 5] | IC50 [3] | IC50 [4] | AUC(0-t) ([1]; intravenous injection (IV) 0.2 mg/kg) | clearance ([1]; intravenous injection (IV) 0.2 mg/kg, read-out: Cl (plasma clearance)) | half-life ([1]; intravenous injection (IV) 0.2 mg/kg, read-out: T1/2 (half-life of elimination) (converted)) | Vd ([1]; intravenous injection (IV) 0.2 mg/kg, read-out: Vdds (volume of distribution at steady state)) | AUC(0-t) ([1]; peros (PO) 2 mg/kg) | Cmax ([1]; peros (PO) 2 mg/kg) | Tmax ([1]; peros (PO) 2 mg/kg) | TGI% (tumor volume at Day 23 after drug administration) ([2]; 10 mg/kg (D0-D17)/5 mg/kg (D18-D28) QD)
1 | COc1ccc(CN2C3CC2CN(c2cnc(-c4cc(C5=CCOCC5)cn5ncc(C#N)c45)cn2)C3)cn1 [Trifluoroacetate of compound 30] | 96.4% | 98% | – | – | – | – | – | – | – | – | – | –
2 | COc1ccc(CN2C3CC2CN(c2ccc(-c4cc(N5CCC(F)(F)C5)cn5ncc(C#N)c45)cn2)C3)cn1 [Trifluoroacetate of compound 69] | 74.7% | 99% | 1.44 nM | 1.57 nM | 3.87 µM·h | 1.3 mL/min/kg | 3.6 h | 0.42 L/kg | 29.6 µM·h | 3.63 µM | 4 h | –
3 | COc1ccc(CN2C3CC2CN(c2ccc(-c4cc(N5CCN(C)CC5)cn5ncc(C#N)c45)cn2)C3)cn1 [Trifluoroacetate of compound 18] | – | – | 0.46 nM | – | – | – | – | – | – | – | – | 91%

From US12297197B2, “Pyrazolopyridine compound as RET inhibitor and application thereof” (GUANGZHOU BAIYUNSHAN PHARMACEUTICAL HOLDINGS CO., LTD. …, priority 2019, dated 2025)
